Reference: patent US20250381165A1, “Method of Use for Benzofuran Compounds” (Tampa Bay Research Institute, Inc., priority 2024, published 2025)

Tests used:
Assay type in all cases: cell-based, murine
[1] = molecular target: T1, MHCI/SIINFEKL complex on DC2.4 (Mus musculus, UniProt P01901); assay: Displacement of SIINFEKL from DC2.4 after peptide pulse; conditions: 25 μg/mL BzFβ after 1 h pulse 30 nM SIINFEKL; p<0.0001
T1 construct: DC2.4 are a C57Bl/6 lineage murine cell line and as such they express MHC class I H-2Kb and H-2Db; endogenous in cells; host or cells: DC2.4 (murine dendritic cell line, from Dr. Kenneth Rock)
T1 sequence (P01901 22-369): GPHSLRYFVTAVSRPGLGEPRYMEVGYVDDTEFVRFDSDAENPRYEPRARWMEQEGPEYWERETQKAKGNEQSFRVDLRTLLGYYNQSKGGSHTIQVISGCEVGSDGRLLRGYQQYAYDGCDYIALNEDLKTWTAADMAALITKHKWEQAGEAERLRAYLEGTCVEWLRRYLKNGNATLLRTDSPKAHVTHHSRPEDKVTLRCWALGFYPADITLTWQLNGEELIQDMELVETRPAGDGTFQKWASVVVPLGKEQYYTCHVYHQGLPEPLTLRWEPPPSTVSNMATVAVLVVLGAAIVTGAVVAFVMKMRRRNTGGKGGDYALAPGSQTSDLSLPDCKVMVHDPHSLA
T1 sequence (P01887 21-119 partner): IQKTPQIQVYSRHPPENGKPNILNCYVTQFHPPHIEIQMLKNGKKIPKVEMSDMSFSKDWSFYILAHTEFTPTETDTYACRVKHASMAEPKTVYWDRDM

[2] = system: MHC class I H-2Kb on IMG cells; assay: Surface MHC class I H-2Kb on IMG cells (AF6-88.5.5.3 flow cytometry); conditions: 25 μg/mL
Method: By using an MHC class I H-2K^b specific antibody, a relative comparison of the surface MHC class I was measured before and after BzFβ treatment of DC2.4 and IMG cells. […] Cells were centrifuged and washed using cold FACS buffer (DPBS with 5% FBS, 2 mM EDTA, 0.1% sodium azide). Cells were blocked with Fc block (bioLegend™; cat. no. 101320) for 10 min to 15 min to inhibit non-specific binding, followed by staining with fluorophore-conjugated antibodies; one set of cells was stained with the PE-labeled MHC/SIINFEKL specific antibody (clone 25-D1.16, Invitrogen™, Thermo Fisher Scientific Inc., Waltham, MA; cat. no. 12-5743-82), and the other set was stained with the PE-labeled MHC class I H-2Kb specific antibody (AF6-88.5.5.3,Invitrogen™, Thermo Fisher Scientific Inc., Waltham, MA; cat. no. 12-5958-82) PE-labeled MHC class I H-2kb specific (clone AF6-88.5.5.3; Invitrogen™, Thermo Fisher Scientific Inc., Waltham, MA; cat. no. 12-5958-82), for 30 min at 4° C. After washing, the cells were subjected to flow cytometric analysis with the Attune NxT Flow Cytometer (Invitrogen). Cells were gated based on live single-cell populations and positives were assessed using isotype controls and fluor-minus-one analysis when needed. Data were analyzed using the Attune NxT software or FlowJo versions 10.7 and 10.8.

[3] = system: DC2.4 cells (B3Z activation); assay: Pathway inhibitor studies in DC2.4/B3Z assay; conditions: DC2.4, 3 μg/mL BFA, 25 μg/mL BzFβ 6 h, 0.5 nM SIINFEKL
Method: […]. The cytotoxicity of all inhibitors was assessed using CellTiter96 Aqueous One (Promega (Madison WI, USA); cat. no. G3580).
. The cells were then washed 2× before addition of BzFβ. Cells exposed to the other inhibitors were incubated with an appropriate concentration of each inhibitor, seen in Table 1 in cDMEM at 37° C., 5% CO2. […]. Cells were then incubated for 6 h. Before B3Z addition the inhibitor and BzFβ were removed, and the cells washed with warm DPBS. If testing peptide presentation, the DC2.4 cells were pulsed with 0.5 nM […] for 1 h prior to being cocultured with B3Z.

[4] = system: B16F10 cells (B3Z activation); assay: B3Z activation by B16F10 (OVA or SIINFEKL)
Method: B16F10 were plated at a density of 2.5 or 5×10^4 cells/well (100 μL/well in 96 well plates) and cultured overnight in cDMEM. The cells were washed with DPBS and then treated for 1-24 h with the indicated concentrations of BzFβ or co-treated with the indicated concentrations of BzFβ and 1.0 mg/mL OVA, suspended in complete media. Cells treated with BzFβ only were pulsed with 2 nM SIINFEKL pulsed for 1 h. The cells were then co-cultured with equal number of B3Z cells at 37° C. for 19 h.
In this experiment the activity of the dipeptide, GL, was also examined, as it has been previously reported to function as a peptide exchange factor. (Saini, et al., Dipeptides catalyze rapid peptide exchange on MHC class I molecules. Proc Natl Acad Sci USA. 2015 Jan. 6; 112(1):202-7; Saini, et al., Empty peptide-receptive MHC class I molecules for efficient detection of antigen-specific T cells. Sci Immunol. 2019 Jul. 19; 4(37):eaau9039). B16F10 were plated at a density of 2.5 or 5×10^4 cells/well (100 μL/well in 96 well plates) and cultured overnight in cDMEM. The cells were washed with DPBS and then co-treated for 24 h with 10 mM (1.88 mg/mL) of GL and 1.0 mg/mL OVA or were pulsed with 2 nM SIINFEKL for 1 h following treatment with 10 mM GL in complete media. The cells were then co-cultured with an equal number of B3Z cells at 37° C. for 19 h.

In the case of O=C(O)/C=C/c1ccc2occc2c1 [BzFβ, (2E)-3-(1-benzofuran-5-yl)prop-2-enoic acid], the “MHCI/SIINFEKL complex staining versus untreated cells” value [1] is reported as “significantly reduced”, the “overall surface expression (MFI) of MHC class I” value ([2]; 1-4 h) is reported as “no significant effect” and the “overall surface expression (MFI) of MHC class I” value ([2]; 24 h) is reported as “significant increase”. The “B3Z activation with SIINFEKL in presence of BFA” value [3] was “unaffected”, the “B3Z activation by B16F10, OVA” value ([4]; co-treatment with 1 mg/mL OVA, GL at 10 mM) was “failed to activate the B3Z cells” and the “B3Z activation by B16F10, SIINFEKL” value ([4]; pre-treatment, 1 h pulse 2 nM SIINFEKL, BzFβ 25, 50 μg, GL 10 mM) was “significantly activate B3Z”.
